Results taken from paper PMC10609219 (Molecules, 2023).

Target: T1, DPP-4 (Homo sapiens, UniProt P27487)
T1 construct: gene DPP4
Experiment: fluorogenic enzyme inhibition assay (Cayman DPP-4 inhibitor screening kit)
Type: biochemical

T1 sequence (P27487 39-766): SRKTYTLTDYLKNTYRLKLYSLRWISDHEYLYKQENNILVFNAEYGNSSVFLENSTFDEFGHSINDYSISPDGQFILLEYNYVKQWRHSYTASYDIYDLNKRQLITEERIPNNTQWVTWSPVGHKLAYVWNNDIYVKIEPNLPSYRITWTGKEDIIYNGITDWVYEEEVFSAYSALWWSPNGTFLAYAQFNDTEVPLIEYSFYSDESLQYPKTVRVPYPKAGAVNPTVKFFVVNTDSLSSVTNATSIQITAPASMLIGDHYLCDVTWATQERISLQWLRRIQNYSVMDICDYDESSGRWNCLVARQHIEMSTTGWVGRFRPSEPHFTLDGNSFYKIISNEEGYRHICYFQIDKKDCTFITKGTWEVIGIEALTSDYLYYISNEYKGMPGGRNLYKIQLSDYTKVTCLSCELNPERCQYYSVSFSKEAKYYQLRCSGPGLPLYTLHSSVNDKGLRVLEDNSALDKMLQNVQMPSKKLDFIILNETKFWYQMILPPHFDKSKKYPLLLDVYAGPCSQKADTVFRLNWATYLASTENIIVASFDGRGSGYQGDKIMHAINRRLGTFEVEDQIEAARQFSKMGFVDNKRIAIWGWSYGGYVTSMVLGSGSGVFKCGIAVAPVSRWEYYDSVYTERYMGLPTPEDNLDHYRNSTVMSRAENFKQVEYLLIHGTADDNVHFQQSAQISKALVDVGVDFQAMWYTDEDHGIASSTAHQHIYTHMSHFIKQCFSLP

With `O=C(O)/C=C/c1ccc(O)c(O)c1` [caffeic acid, (E)-3-(3,4-dihydroxyphenyl)prop-2-enoic acid] the IC50 was 158 ± 11.3 µM.
